Test systems include CCRF-CEM leukemia; HT29 colon; MALME-3M melanoma; MDA-MB-231 breast; PC-3 prostate; SW-620 colon; TK-10 renal; U251 CNS; UO-31 renal; NCI-H522 lung.
Common to all, as to assay: growth of human tumour cells (NCI), 48 h

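How tested: cells in 96-well plates exposed to compound for 48 hours at five concentrations. Here, GI50 denotes the concentration required for 50% inhibition of growth. TGI is the concentration that stops growth completely.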

Turning to `CCNc1nc(N)c(C(=O)c2ccc(Cl)cc2)s1`, the TGI in the experiment on CCRF-CEM leukemia is 22.6 µM; in the experiment on HT29 colon, above 100 µM; in the experiment on MALME-3M melanoma, above 100 µM; in the experiment with MDA-MB-231 breast, above 100 µM; with PC-3 prostate it was above 100 µM; in the experiment with SW-620 colon it was above 100 µM. Besides, the figures for the TGI in the experiment with TK-10 renal, with U251 CNS and in the experiment with UO-31 renal were 54.4 µM, above 100 µM and 40.2 µM, respectively.
Regarding `Cc1cc2c(cc1-c1cc3c(cc1C)C(C(C)C)=C(O)C(=O)/C3=C\Nc1nc(-c3ccccc3)cs1)/C(=C/Nc1nc(-c3ccccc3)cs1)C(=O)C(O)=C2C(C)C`, the TGI in the experiment with CCRF-CEM leukemia was 64.4 µM; in the experiment with HT29 colon, 50.2 µM; in the experiment with MALME-3M melanoma it was above 100 µM; in the experiment on MDA-MB-231 breast it was 28.5 µM; with PC-3 prostate it was 37.3 µM; with SW-620 colon, 29 µM. Moreover, the TGI in the experiment with U251 CNS worked out at 27.5 µM.
As to `CC(=O)Nc1ccc(S(=O)(=O)Nc2nnc(S(N)(=O)=O)s2)cc1`, the TGI in the experiment with HT29 colon, in the experiment with MALME-3M melanoma, in the experiment with MDA-MB-231 breast, in the experiment with NCI-H522 lung, with SW-620 colon and in the experiment on TK-10 renal was above 100 µM each time. The TGI in the experiment on U251 CNS and with UO-31 renal was above 100 µM throughout.
Turning to `Cc1cn(C2CC(O)C(CO)C2C)c(=O)[nH]c1=O` (centres undefined), the TGI in the experiment with CCRF-CEM leukemia, with HT29 colon, in the experiment with MALME-3M melanoma, in the experiment with NCI-H522 lung, with SW-620 colon and in the experiment on U251 CNS was above 100 µM each time. Further, the TGI with UO-31 renal is above 100 µM.
`CCN(CC)CCCCCCCCNc1c2ccc(Cl)cc2nc2ccc(OC)cc12`: the GI50 is 634 nM in the experiment on CCRF-CEM leukemia; 597 nM in the experiment on HT29 colon; 1480 nM with MDA-MB-231 breast; 1800 nM in the experiment on NCI-H522 lung; 1640 nM in the experiment on PC-3 prostate; 1020 nM in the experiment with SW-620 colon. Moreover, the figures for the GI50 with TK-10 renal, with U251 CNS and in the experiment on UO-31 renal were 1830 nM, 1380 nM and 1720 nM, respectively. Moreover, the TGI in the experiment on CCRF-CEM leukemia was found to be 6.32 µM; in the experiment with HT29 colon, 2.25 µM; in the experiment on MDA-MB-231 breast it was 3.09 µM; in the experiment with NCI-H522 lung it was 3.81 µM; with PC-3 prostate, 4.06 µM; with SW-620 colon, 2.67 µM. For the same compound, the TGI in the experiment with TK-10 renal came out at 4.24 µM; in the experiment with U251 CNS, 2.97 µM; in the experiment on UO-31 renal it was 4.34 µM.
For the compound `C=Nc1ccc([N+](=O)[O-])cc1`, the TGI in the experiment with CCRF-CEM leukemia, in the experiment on HT29 colon, in the experiment on MALME-3M melanoma, in the experiment with NCI-H522 lung, with SW-620 colon and in the experiment on TK-10 renal was above 100 µM throughout. Moreover, the TGI in the experiment on U251 CNS and in the experiment on UO-31 renal was above 100 µM each time.
As to `Cc1ccccc1N=C(N)NC#N`, the TGI with CCRF-CEM leukemia, with HT29 colon, with MALME-3M melanoma, with MDA-MB-231 breast, with PC-3 prostate and in the experiment with SW-620 colon was above 100 µM throughout. The TGI in the experiment on TK-10 renal, in the experiment on U251 CNS and in the experiment with UO-31 renal was above 100 µM in each case.
For `Cc1nc2c(cc1C(=O)NN)c(=O)n(C)c(=O)n2C`, the TGI with CCRF-CEM leukemia, in the experiment with HT29 colon, in the experiment with MDA-MB-231 breast, with PC-3 prostate, in the experiment on SW-620 colon and in the experiment on TK-10 renal was above 100 µM in each case. Further, the TGI in the experiment on U251 CNS and in the experiment on UO-31 renal was above 100 µM throughout.
On to `COc1ccc(/C=N\N2CC(=O)N3C4C=CC(CC4)N3C2=O)cc1` (centres undefined), for which the TGI in the experiment with CCRF-CEM leukemia, in the experiment with HT29 colon, with MDA-MB-231 breast, in the experiment on PC-3 prostate, in the experiment on SW-620 colon and in the experiment on TK-10 renal was above 100 µM each time. For the same compound, the TGI in the experiment on U251 CNS and in the experiment with UO-31 renal was above 100 µM in each case.
On to `CCSc1ncnc2c(C3OC(CO)C(O)C3O)nsc12` (centres undefined), for which the TGI in the experiment with CCRF-CEM leukemia, in the experiment with HT29 colon, with MALME-3M melanoma, with MDA-MB-231 breast, with PC-3 prostate and with SW-620 colon was above 100 µM each time. The compound also yielded a TGI with U251 CNS above 100 µM.
As to `O=[N+]([O-])C(/C(Cl)=C(/Cl)N1CCOCC1)=C1\NCCO1`, the TGI in the experiment with CCRF-CEM leukemia, in the experiment with HT29 colon, in the experiment on MALME-3M melanoma, in the experiment on MDA-MB-231 breast, in the experiment on PC-3 prostate and in the experiment with SW-620 colon was above 100 µM each time. Further, the TGI in the experiment with U251 CNS and in the experiment on UO-31 renal was above 100 µM in each case.
For `C(=N\Nc1ncc(-c2cc3cc4c(cc3o2)OCO4)s1)/c1c[nH]c2ccccc12`, the GI50 in the experiment with CCRF-CEM leukemia is 392 nM; in the experiment with HT29 colon it was 3320 nM; with MALME-3M melanoma, 1400 nM; with PC-3 prostate, 519 nM; in the experiment with SW-620 colon, 1200 nM; in the experiment on TK-10 renal, 2400 nM. Besides, the GI50 in the experiment on UO-31 renal is 348 nM. The TGI in the experiment with CCRF-CEM leukemia was above 100 µM; with HT29 colon, above 100 µM; in the experiment on MALME-3M melanoma, 4.02 µM; in the experiment on PC-3 prostate, 6.2 µM; with SW-620 colon, 3 µM; with TK-10 renal it was 5.59 µM. The compound further gave a TGI with UO-31 renal of 1.57 µM.
As to `O=C(NCC1Nc2ccncc2S(=O)(=O)N1)c1ccc(Br)cc1` (centres undefined), the TGI was above 100 µM with HT29 colon; 97.5 µM in the experiment on MALME-3M melanoma; above 100 µM with MDA-MB-231 breast; above 100 µM with NCI-H522 lung; 51.4 µM in the experiment with PC-3 prostate; above 100 µM in the experiment on SW-620 colon. Also, the TGI in the experiment on TK-10 renal, in the experiment with U251 CNS and with UO-31 renal was above 100 µM in each case.
`CC1(C)CCC[C@]2(C)[C@@H]1CC[C@@]13O[C@@H]1C1=C(CO)C(=O)O[C@]14O[C@@H]4[C@@H]23`: the TGI in the experiment with HT29 colon came out at 26.2 µM; in the experiment on MALME-3M melanoma, 32.4 µM; in the experiment with MDA-MB-231 breast, 35.9 µM; in the experiment on NCI-H522 lung, 22 µM; in the experiment on PC-3 prostate, 25.5 µM; in the experiment on SW-620 colon it was 29.5 µM. In addition, the figures for the TGI with TK-10 renal, in the experiment on U251 CNS and in the experiment on UO-31 renal were 38 µM, 29.2 µM and 18.7 µM, respectively.

The values are drawn from PubChem BioAssay (NCI).
